Test results from ChEMBL document CHEMBL1201862, “PubChem BioAssay data set” (2004).
The source made the active and inactive calls.

Tests used:
[1] = molecular target: Eukaryotic translation initiation factor 4H (Homo sapiens, UniProt Q15056); assay: inhibitors of translation initiation factor eIF4H – SAR follow-up (AID 435011); format: functional
[2] = molecular target: Polyadenylate-binding protein 1 (Homo sapiens, UniProt P11940); assay: PABP inhibition in translation initiation, SAR follow-up (AID 435018); format: functional
Bcl-2-like protein 10 = Bcl-2-like protein 10 (Homo sapiens, UniProt Q9HD36); assay: Bcl-B/TR3 peptide binding disruption – biochemical, fluorescence polarization, FITC-TR3 peptide, selectivity assay for Bfl-1 inhibitor project, primary screen (AID 748);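 note: fluorescence polarization from a fluorescein-labelled TR3 peptide binding purified Bcl-B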
[3] = microbe, parasite or virus in culture; format: functional; settings: Mycobacterium tuberculosis
[4] = THP-1 cell cytotoxicity, dose response, cytotoxicity control for non-replicating M. tuberculosis project (AID 489025); format: functional
[5] = HepG2 cell cytotoxicity, dose response, cytotoxicity control for non-replicating M. tuberculosis project (AID 489018); format: functional; settings: Mycobacterium tuberculosis
[6] = Vero E6 cell cytotoxicity, dose response, cytotoxicity control for non-replicating M. tuberculosis project, secondary assay (AID 492998); format: functional, VeroE6; settings: Vero C1008
cells = format: functional
[7] = molecular target: T1, RNA-binding protein pos-1 (Caenorhabditis elegans, UniProt G5EF15); assay: disruptors of C. elegans POS-1 RNA interaction – biochemical, fluorescence polarization, dose response (AID 1964);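 note: purified POS-1 fused to maltose binding protein made in E. coli; potency of compounds blocking POS-1 binding to fluorescent RNA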
T1 sequence (G5EF15 whole entry): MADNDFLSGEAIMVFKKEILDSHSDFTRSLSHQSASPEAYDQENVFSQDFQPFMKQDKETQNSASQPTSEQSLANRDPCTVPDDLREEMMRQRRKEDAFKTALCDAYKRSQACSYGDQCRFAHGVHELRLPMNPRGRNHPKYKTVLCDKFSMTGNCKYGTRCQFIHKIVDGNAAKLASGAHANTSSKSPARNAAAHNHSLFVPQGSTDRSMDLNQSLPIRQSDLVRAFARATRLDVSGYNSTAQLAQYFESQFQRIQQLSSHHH

[8] = molecular target: Intestinal-type alkaline phosphatase (Homo sapiens, UniProt P09923); assay: Dose Response confirmation of uHTS hits from a small molecule inhibitors of human intestinal alkaline phosphatase via a luminescent assay. [Related pubchem assays (depositor defined):AID2544, AID2574]; format: functional
[9] = molecular target: T2, Corticotropin-releasing factor receptor 2/Corticotropin-releasing factor-binding protein (Homo sapiens, UniProt P24387+Q13324); assay: activators of CRF receptor 2 with binding protein – uHTS hits, confirmation (AID 602473); format: functional; settings: read-out: EC50_Mean
T2 sequence (Q13324 whole entry): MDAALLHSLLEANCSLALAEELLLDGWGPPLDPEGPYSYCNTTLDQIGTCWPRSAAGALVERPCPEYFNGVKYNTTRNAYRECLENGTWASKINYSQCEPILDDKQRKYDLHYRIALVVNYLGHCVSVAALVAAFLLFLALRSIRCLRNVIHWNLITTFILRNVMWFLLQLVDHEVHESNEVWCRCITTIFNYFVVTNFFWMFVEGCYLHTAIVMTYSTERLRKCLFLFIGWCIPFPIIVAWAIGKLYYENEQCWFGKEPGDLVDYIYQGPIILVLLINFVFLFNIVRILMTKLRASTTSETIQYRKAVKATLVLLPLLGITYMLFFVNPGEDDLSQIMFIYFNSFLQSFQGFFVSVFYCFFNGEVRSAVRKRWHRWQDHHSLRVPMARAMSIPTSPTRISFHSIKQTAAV
T2 sequence (P24387 whole entry): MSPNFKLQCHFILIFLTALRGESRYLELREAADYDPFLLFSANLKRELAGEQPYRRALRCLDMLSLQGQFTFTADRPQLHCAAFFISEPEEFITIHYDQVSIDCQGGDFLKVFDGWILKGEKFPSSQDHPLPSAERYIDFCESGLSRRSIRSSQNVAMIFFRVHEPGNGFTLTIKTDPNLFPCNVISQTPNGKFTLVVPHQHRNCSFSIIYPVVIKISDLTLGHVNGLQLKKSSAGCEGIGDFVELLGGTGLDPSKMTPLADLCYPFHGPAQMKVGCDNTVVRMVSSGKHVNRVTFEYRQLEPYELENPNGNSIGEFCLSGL

SUMO E1/E2 = SUMO E1/E2 (Homo sapiens, UniProt P63279+Q9UBE0+Q9UBT2); assay: SAR analysis of SUMOylation using HTRF in an in-Vitro dose response assay. [Related pubchem assays (depositor defined):AID2006, AID2011, AID2018, AID2069, AID2658]; format: functional
[10] = molecular target: T3, Voltage-gated N-type calcium channel alpha-1B subunit/Amyloid beta A4 precursor protein-binding family A member 1 (Homo sapiens, UniProt Q00975+Q02410); assay: disruptors of Mint-PDZ/N-type channel peptide interaction – biochemical, HTRF, set 2, SAR follow-up (AID 434980); format: functional
[11] = molecular target: T3, Voltage-gated N-type calcium channel alpha-1B subunit/Amyloid beta A4 precursor protein-binding family A member 1; assay: disruptors of Mint-PDZ/N-type channel peptide interaction – biochemical, HTRF, SAR follow-up (AID 2489); format: functional

T3 sequence (Q00975 whole entry): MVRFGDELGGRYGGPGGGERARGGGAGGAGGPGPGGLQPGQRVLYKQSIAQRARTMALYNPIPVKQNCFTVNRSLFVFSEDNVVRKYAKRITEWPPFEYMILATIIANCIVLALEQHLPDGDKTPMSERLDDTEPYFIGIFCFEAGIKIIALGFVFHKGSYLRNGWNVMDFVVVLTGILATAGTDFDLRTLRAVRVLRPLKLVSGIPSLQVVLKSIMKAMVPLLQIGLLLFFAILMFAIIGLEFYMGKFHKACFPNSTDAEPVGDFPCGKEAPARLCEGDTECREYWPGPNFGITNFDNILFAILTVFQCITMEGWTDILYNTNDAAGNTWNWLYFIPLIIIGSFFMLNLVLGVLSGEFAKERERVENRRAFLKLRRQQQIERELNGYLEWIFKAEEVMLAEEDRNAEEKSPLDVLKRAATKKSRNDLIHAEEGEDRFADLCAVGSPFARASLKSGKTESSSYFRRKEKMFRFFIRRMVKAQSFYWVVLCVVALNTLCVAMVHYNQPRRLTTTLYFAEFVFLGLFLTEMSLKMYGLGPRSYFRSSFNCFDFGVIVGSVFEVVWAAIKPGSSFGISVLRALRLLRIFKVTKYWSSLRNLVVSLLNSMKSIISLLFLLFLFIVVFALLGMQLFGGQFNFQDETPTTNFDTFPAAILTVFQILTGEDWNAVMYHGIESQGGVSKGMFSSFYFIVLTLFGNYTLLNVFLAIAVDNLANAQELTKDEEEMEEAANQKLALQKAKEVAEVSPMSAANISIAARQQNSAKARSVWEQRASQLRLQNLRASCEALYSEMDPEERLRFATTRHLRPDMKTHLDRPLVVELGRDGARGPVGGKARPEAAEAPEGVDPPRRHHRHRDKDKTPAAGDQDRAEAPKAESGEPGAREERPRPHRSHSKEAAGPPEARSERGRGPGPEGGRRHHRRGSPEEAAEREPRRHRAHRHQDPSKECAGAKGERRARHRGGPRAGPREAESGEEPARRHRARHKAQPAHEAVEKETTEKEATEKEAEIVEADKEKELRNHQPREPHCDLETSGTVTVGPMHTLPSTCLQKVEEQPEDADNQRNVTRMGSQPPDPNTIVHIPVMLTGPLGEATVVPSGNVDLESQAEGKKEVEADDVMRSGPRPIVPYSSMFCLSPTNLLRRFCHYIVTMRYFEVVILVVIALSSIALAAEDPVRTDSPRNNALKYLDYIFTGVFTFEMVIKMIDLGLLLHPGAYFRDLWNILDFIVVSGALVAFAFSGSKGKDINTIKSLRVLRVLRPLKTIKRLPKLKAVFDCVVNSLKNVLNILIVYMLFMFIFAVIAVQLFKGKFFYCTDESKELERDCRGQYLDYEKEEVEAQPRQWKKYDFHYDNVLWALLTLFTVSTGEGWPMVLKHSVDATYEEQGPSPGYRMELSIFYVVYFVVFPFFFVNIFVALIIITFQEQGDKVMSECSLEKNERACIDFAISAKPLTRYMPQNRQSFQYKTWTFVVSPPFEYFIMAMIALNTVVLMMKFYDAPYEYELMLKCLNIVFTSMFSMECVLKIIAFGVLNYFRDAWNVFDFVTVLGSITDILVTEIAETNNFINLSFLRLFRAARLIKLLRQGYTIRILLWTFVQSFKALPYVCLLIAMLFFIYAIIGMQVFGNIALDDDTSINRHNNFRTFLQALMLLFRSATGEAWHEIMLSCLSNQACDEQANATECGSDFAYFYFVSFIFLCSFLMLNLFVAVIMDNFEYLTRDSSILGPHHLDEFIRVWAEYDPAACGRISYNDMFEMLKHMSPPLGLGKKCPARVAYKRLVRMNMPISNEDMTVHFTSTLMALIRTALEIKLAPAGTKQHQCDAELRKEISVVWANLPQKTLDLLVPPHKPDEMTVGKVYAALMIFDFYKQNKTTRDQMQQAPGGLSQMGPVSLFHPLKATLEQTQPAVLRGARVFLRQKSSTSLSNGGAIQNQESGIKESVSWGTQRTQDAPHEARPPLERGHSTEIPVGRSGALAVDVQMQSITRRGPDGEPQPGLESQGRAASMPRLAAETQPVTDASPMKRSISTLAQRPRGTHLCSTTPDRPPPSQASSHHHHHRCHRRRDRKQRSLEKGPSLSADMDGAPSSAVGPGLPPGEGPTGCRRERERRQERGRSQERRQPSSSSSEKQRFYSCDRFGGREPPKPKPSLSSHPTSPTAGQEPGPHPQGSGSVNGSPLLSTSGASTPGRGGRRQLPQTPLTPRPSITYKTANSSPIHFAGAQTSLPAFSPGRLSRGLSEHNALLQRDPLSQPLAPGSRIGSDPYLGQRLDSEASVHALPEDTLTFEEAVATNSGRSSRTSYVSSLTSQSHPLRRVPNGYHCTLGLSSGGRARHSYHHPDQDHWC
T3 sequence (Q02410 whole entry): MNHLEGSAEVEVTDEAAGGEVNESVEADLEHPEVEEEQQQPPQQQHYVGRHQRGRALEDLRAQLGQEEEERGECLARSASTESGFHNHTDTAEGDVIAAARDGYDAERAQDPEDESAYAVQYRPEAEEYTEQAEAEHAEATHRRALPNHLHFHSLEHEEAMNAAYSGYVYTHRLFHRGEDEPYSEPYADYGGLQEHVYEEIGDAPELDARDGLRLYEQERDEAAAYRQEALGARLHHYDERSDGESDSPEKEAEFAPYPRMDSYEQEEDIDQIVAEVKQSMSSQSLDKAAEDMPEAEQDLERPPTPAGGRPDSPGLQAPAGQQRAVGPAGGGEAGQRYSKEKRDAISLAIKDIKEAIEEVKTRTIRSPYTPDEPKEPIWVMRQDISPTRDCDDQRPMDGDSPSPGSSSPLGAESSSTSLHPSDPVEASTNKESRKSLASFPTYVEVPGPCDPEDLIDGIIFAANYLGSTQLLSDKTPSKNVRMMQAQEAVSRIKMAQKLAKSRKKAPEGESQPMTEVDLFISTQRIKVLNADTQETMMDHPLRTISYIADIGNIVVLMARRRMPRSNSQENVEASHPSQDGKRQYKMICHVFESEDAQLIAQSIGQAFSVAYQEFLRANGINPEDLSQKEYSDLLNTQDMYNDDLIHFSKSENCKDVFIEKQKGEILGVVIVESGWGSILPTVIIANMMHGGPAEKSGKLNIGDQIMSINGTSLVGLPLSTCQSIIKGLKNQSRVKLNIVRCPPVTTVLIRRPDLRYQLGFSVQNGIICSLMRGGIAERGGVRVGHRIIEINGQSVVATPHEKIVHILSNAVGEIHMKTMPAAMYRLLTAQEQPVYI
Intestinal-type alkaline phosphatase, sequence (P09923 whole entry): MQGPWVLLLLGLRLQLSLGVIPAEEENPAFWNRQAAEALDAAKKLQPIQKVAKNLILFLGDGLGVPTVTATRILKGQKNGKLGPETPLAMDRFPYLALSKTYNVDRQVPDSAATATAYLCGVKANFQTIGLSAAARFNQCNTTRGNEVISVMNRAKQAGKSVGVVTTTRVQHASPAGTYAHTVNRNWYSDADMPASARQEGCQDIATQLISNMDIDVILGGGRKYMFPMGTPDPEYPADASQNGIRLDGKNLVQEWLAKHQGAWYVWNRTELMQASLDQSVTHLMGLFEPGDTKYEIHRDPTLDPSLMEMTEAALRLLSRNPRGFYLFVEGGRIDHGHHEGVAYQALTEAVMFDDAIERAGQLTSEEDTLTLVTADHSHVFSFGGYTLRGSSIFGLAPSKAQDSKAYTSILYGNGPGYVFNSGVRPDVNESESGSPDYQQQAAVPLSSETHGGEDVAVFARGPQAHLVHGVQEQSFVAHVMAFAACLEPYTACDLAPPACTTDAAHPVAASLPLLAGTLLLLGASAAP
Polyadenylate-binding protein 1, sequence (P11940 whole entry): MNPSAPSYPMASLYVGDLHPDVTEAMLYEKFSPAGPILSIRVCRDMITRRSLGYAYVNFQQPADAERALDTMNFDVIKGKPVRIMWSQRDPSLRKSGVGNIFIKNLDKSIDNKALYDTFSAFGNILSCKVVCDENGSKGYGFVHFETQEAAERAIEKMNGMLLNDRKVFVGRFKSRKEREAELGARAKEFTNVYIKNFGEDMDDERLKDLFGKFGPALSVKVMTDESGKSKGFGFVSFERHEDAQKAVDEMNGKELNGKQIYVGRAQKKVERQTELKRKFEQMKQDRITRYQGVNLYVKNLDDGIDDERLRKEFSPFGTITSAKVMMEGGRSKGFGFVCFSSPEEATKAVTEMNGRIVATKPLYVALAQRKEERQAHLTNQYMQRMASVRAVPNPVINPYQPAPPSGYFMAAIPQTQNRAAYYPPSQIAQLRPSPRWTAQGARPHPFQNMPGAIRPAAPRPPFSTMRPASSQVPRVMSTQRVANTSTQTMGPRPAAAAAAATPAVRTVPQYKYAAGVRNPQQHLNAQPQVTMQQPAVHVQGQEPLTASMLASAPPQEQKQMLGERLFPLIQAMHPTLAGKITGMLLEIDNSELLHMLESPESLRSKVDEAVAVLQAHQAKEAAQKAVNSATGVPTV
Bcl-2-like protein 10, sequence (Q9HD36 whole entry): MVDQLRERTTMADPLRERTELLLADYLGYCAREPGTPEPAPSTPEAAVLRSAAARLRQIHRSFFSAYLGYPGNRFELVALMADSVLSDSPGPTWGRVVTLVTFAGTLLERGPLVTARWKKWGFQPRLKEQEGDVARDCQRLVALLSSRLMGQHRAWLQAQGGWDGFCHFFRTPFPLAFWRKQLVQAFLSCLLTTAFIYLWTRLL

Cc1cccc(NC(=O)CSc2ccc(-c3ccco3)nn2)c1C
IC50 [1]: 71.5 µM (active) | IC50 [2]: > 100 µM (inactive)

Cc1c(CN(C)C)c2c(n1Cc1ccccc1)C(=O)c1ccc(Br)cc1-2
IC50 (Bcl-2-like protein 10): > 50 µM (inactive) | CC50 [3]: 22 µM (active) | CC50 [4]: 10.5 µM (active) | CC50 [5]: > 20 µM (active) | CC50 [6]: 15.3 µM (active) | IC50 (cells): 10.6 µM (active)

COC(=O)Cn1cc(/C=C2\C(=O)NC(=O)N(c3ccccc3)C2=O)c2ccccc21
EC50 [7]: > 300 µM (inconclusive) | IC50 [8]: > 100 µM (inactive) | EC50 [9]: 7.64 µM (active)

Cc1ccc(S(=O)(=O)N(C)C)cc1NC(=O)c1cc(-c2ccco2)nc2ccccc12
IC50 (SUMO E1/E2): 4.98 µM (active) | IC50 [10]: > 56.8 µM (inactive) | IC50 [11]: > 56.8 µM (inactive)
